Experimental data: patent publication US11591334B2, “Substituted pyrrolizines for the treatment of hepatitis B” (SHANGHAI LONGWOOD BIOPHARMACEUTICALS CO., LTD., priority 2017, dated 2023)
Read-outs that look alike come from different tables or passages of the source.

How the values were obtained:
[1] = Determination of cytotoxicity (Experiment 3, resazurin assay); assay type: cell-based; conditions: human; HepG2 cells, incubated for 4 days, resazurin assay; read-out: Experiment 3 Cytotoxicity CC50
Experimental: Compound dilution. All the compounds for in vitro anti-HBV activity assay and cytotoxicity assay were 3-fold diluted into 8 concentrations. The final concentration of the tested compound was 30 μM, the final starting concentration of reference compound GLS4 was 1 μM, and the final concentration of DMSO was 0.5%. Experiment 3: Determination of Cytotoxicity The cytotoxicity of the test compound was tested using HepG2 cells. The cells were incubated for 4 days in the presence of the test compound. Cell activity was assessed using the resazurin assay.

C150 protein = molecular target: T1, C150 protein (Hepatitis B virus genotype D subtype adw, UniProt P03147, C107A/C48A/C61A/R150C); assay: In vitro anti-HBV nucleocapsid assembly activity test (Experiment 1, protein experiment); assay type: biochemical
T1 construct: purchased WuXi Apptec Co., Ltd
Experimental: Experiment 1: In Vitro Anti-HBV Nucleocapsid Assembly Activity Test
Main Reagents and Raw Materials:
C150 protein was expressed and purified by WuXi Apptec Co., Ltd.
BoDIPY® FL was purchased from Thermo Fisher Scientific.
Protein Fluorescent Label:
150 μL of 2% w/v skimmed milk was added into each well of 96-well plate, and incubated at room temperature for 2 hours. The skimmed milk was aspirated. The plate was washed with deionized water and dried, and stored at room temperature. C150 protein (3 mg per tube) was desalted with 5 ml Hitrap desalting column. The desalted C150 protein of each tube was added with 50 mM BoDIPY® FL Fluorescent Dye (20 μl), and incubated under 4° C. overnight in the dark after well mixed. Sephadex G-25 gel was used for filtration to remove fluorescent dyes that were not bounded onto C150. The C150 fluorescent labeling efficiency was calculated according to the following equation: [BoDIPY®FL]=A504/78,000 M^−1; [C150Bo]=(A280−[BoDIPY®FL]×1300 M^−1)/60,900 M^−1; Fluorescent Labeling Efficiency=[BoDIPY®FL]/[C150Bo];
The mother liquor of compound was diluted with DMSO to 6 mM, then diluted to 600 μM with 50 mM HEPES, and then further 3-fold diluted with 10 DMSO/50 mM HEPES to 8 concentrations.
C150Bo was diluted to 2 μM with 50 mM HEPES. 37.5 μL of C150Bo and 2.5 μL of compound at each concentration were added into a 96 well plate and well mixed, then incubated at room temperature for 15 minutes. 10 μl of 750 mM NaCl/50 mM HEPES were added into the each reaction well, and the final concentration of NaCl was 150 mM.
Into the control wells in the 0% protein group 10 μL of 50 mM HEPES was added, and the final concentration of NaCl was 0 mM.
Into the control wells in the 100% protein group 10 μL of 5 M/50 mM HEPES was added, and the final concentration of NaCl was 1 M.
The final concentration of DMSO was 0.5%, the maximum final concentration of the compound was 30 μM, and final concentration of C150Bo was 1.5 μM. The mixture was incubated at room temperature for 1 hour. Fluorescence signal was measured (excitation light was 485 nm; emission light was 535 nm).
Data Analysis % protein assembly=[1−(Sample fluorescence value−1 M NaCl fluorescence value)/(0 M NaCl fluorescence value−1 M NaCl fluorescence value)]×100.
IC50 value was calculated by prism software, and the equation was as follows: Y=Bottom+(Top−Bottom)/(1+10^((LogIC50−X)HillSlope));

HBV = assay: Determination of anti-HBV activity in HepG2.2.15 cell (Experiment 2, HBV DNA in supernatant by qPCR); assay type: cell-based; conditions: Hepatitis B virus; HepG2.2.15 cells, HBV DNA in supernatant on the eighth day, qPCR; read-out: Experiment 2 Cell experiment EC50
Experimental: Experiment 2: Determination of Anti-HBV Activity in HepG2.2.15 Cell
Compound dilution. All the compounds for in vitro anti-HBV activity assay and cytotoxicity assay were 3-fold diluted into 8 concentrations. The final concentration of the tested compound was 30 μM, the final starting concentration of reference compound GLS4 was 1 μM, and the final concentration of DMSO was 0.5%.
HepG2.2.15 cell (4×10^4 cell/well) was inoculated into 96 well plate, and cultured overnight in 37° C., 5% CO2. On the second day, fresh culture medium containing different concentrations of the compound was added into the culture wells. On the fifth day, the old culture solution in the culture well was aspirated and fresh culture medium containing different concentrations of the compound was added.
On the eighth day, the supernatant in the culture well was collected for extraction of HBV DNA, and the content of DNA in the supernatant of HepG2.2.15 HBV was detected by qPCR. After the supernatant was collected, the medium and Cell-titer Glo reagent were added into the culture well, and the chemiluminescence value of each well was measured by microplate reader.
The activity calculation formula was as follows: Y=Bottom+(Top−Bottom)/(1+10^((LogIC50−X)*Hillslope));

[2] = fluorescently labeled C150 (C150Bo) 1.5 μM, 150 mM NaCl, 1 hour at room temperature, read-out: Experiment 1 Protein experiment IC50

T1 sequence (P03147 1-150 C48A/C61A/C107A/R150C): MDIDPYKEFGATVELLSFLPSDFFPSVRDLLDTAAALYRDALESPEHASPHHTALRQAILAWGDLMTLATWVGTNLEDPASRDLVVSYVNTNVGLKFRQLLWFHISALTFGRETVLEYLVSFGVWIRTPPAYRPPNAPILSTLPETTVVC

Row | Structure (SMILES) | CC50 at 4 days [1] | IC50 (C150 protein; [2]) | EC50 (HBV) | IC50 (C150 protein)
1 | CC(NS(=O)(=O)c1c2ncccc2c(C(=O)Nc2ccc(F)c(F)c2)n1C)C(F)(F)F (stereo not drawn) [Compound 70a] | > 30000 nM | > 100000 nM | 0.1 to 100 nM | –
2 | Cc1c(S(=O)(=O)NC2C3CCC2CC(O)(CO)C3)c2n(c1C(=O)Nc1ccc(F)c(F)c1)CCC=C2 (stereo not drawn) [Compound 30r] | > 30000 nM | 1000 to 100000 nM | 0.1 to 100 nM | –
3 | Cc1c(S(=O)(=O)NC2C3CCC2CC(O)(CO)C3)c2n(c1C(=O)Nc1ccc(F)c(F)c1)CC=C2 (stereo not drawn) [Compound 10mm] | > 30000 nM | 1000 to 100000 nM | 100 to 1000 nM | –
4 | C[C@@H](NS(=O)(=O)c1c(Cl)c(C(=O)Nc2ccc(F)c(F)c2)n2c1C=CCC2)C(F)(F)F [Compound 30a] | > 30000 nM | < 1000 nM | 0.1 to 100 nM | –
5 | C[C@@H](NS(=O)(=O)Nc1c(Cl)c(C(=O)Nc2ccc(F)c(F)c2)n2c1CCC2)C(F)(F)F [Compound 90a] | > 30000 nM | 1000 to 100000 nM | 0.1 to 100 nM | –
6 | C[C@@H](NS(=O)(=O)c1c(Cl)c(C(=O)Nc2ccnc(Cl)c2)n2c1C=CCC2)C(F)(F)F [Compound 30c] | > 30000 nM | – | 0.1 to 100 nM | 1000 to 100000 nM
7 | C[C@@H](NS(=O)(=O)c1c(Cl)c(C(=O)Nc2ccc(F)c(F)c2)n2c1C=CCCC2)C(F)(F)F [Compound 50a] | > 30000 nM | 1000 to 100000 nM | 0.1 to 100 nM | –
8 | CC(NS(=O)(=O)c1c(Cl)c(C(=O)Nc2cc(F)nc(C#N)c2)n2c1C=CC2)C(F)(F)F (stereo not drawn) [Compound 10f] | > 30000 nM | – | 0.1 to 100 nM | 1000 to 100000 nM
9 | Cc1c(NC(=O)NC(C)C(F)(F)F)c2n(c1C(=O)Nc1ccnc(Cl)c1)CCC2 (stereo not drawn) [Compound 100d] | > 30000 nM | – | 0.1 to 100 nM | 1000 to 100000 nM
10 | CC(CO)NS(=O)(=O)c1c(Cl)c(C(=O)Nc2ccc(F)c(F)c2)n2c1CCC2 (stereo not drawn) [Compound 20cc] | > 30000 nM | 1000 to 100000 nM | 100 to 1000 nM | –
11 | C[C@@H](NS(=O)(=O)c1c(Cl)c(C(=O)Nc2ccc(F)c(C#N)c2)n2c1CCCC2)C(F)(F)F [Compound 40b] | > 30000 nM | – | 0.1 to 100 nM | 1000 to 100000 nM
12 | Cc1c(S(=O)(=O)NC(C)C(F)(F)F)c2n(c1C(=O)Nc1ccc(F)c(F)c1)CC=C2 (stereo not drawn) [Compound 10g] | > 30000 nM | 1000 to 100000 nM | 0.1 to 100 nM | –
13 | Cc1c(NS(=O)(=O)NC2(C)COC2)c2n(c1C(=O)Nc1cc(F)nc(C#N)c1)CCC2 [Compound 90h] | > 30000 nM | 1000 to 100000 nM | 0.1 to 100 nM | –
14 | C[C@@H](NS(=O)(=O)c1c(Cl)c(C(=O)Nc2ccnc(Cl)c2)n2c1CCCC2)C(F)(F)F [Compound 40c] | > 30000 nM | – | 0.1 to 100 nM | 1000 to 100000 nM
15 | O=C(Nc1ccc(F)c(F)c1)c1c(Cl)c(S(=O)(=O)NC2C3CCC2CC(O)(c2cc(-c4ccccc4)on2)C3)c2n1CC=C2 (stereo not drawn) [Compound 10oo] | > 30000 nM | 1000 to 100000 nM | 100 to 1000 nM | –
16 | CC(CO)NS(=O)(=O)c1c(Cl)c(C(=O)Nc2ccnc(C(F)F)c2)n2c1CCC2 (stereo not drawn) [Compound 20ee] | > 30000 nM | 1000 to 100000 nM | 0.1 to 100 nM | –
17 | CC(NS(=O)(=O)c1c(Cl)c(C(=O)Nc2ccnc(Cl)c2)n2c1C=CC2)C(F)(F)F (stereo not drawn) [Compound 10e] | > 30000 nM | 1000 to 100000 nM | 100 to 1000 nM | –
18 | CC(NS(=O)(=O)c1c(Cl)c(C(=O)Nc2ccnc(C(F)F)c2)n2c1C=CC2)C(F)(F)F (stereo not drawn) [Compound 10d] | > 30000 nM | 1000 to 100000 nM | 100 to 1000 nM | –
19 | N#Cc1cc(NC(=O)c2c(Cl)c(S(=O)(=O)NC3C4CCC3CC(O)(CO)C4)c3n2CCC3)cc(F)n1 (stereo not drawn) [Compound 20ll] | > 30000 nM | 1000 to 100000 nM | 0.1 to 100 nM | –
